PubChem BioAssay (NCI)
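Step 1: Grow cells in 96-well plates. Step 2: Expose to compound for 48 hours at 5 concentrations. Step 3: Interpolate endpoints linearly; if unreached, use highest concentration. GI50 marks 50% less growth. At the TGI there is no net growth.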

Experiments:
Assay in all cases: NCI tumour cell line growth inhibition, 48 h
SK-MEL-5 melanoma = system: SK-MEL-5 melanoma
MCF7 breast = system: MCF7 breast
UO-31 renal = system: UO-31 renal
A549 NSCLC = system: A549 NSCLC
KM12 colon = system: KM12 colon
NCI/ADR-RES ovarian = system: NCI/ADR-RES ovarian
MDA-MB-435 = system: MDA-MB-435
HOP-92 NSCLC = system: HOP-92 NSCLC
SF-268 CNS = system: SF-268 CNS
SR leukemia = system: SR leukemia
BT-549 breast = system: BT-549 breast
HCT-15 colon = system: HCT-15 colon
UACC-257 melanoma = system: UACC-257 melanoma
NCI-H460 lung = system: NCI-H460 lung
HT29 colon = system: HT29 colon
CAKI-1 renal = system: CAKI-1 renal
HCC-2998 colon = system: HCC-2998 colon
K-562 leukemia = system: K-562 leukemia
A498 renal = system: A498 renal
COLO 205 colon = system: COLO 205 colon
SK-OV-3 ovarian = system: SK-OV-3 ovarian
HOP-62 NSCLC = system: HOP-62 NSCLC
SF-295 CNS = system: SF-295 CNS
OVCAR-8 ovarian = system: OVCAR-8 ovarian
PC-3 prostate = system: PC-3 prostate
OVCAR-5 ovarian = system: OVCAR-5 ovarian
MDA-MB-231 breast = system: MDA-MB-231 breast
U251 CNS = system: U251 CNS
SNB-19 CNS = system: SNB-19 CNS
MOLT-4 leukemia = system: MOLT-4 leukemia
NCI-H23 lung = system: NCI-H23 lung
HS 578T breast = system: HS 578T breast
M14 melanoma = system: M14 melanoma
NCI-H522 lung = system: NCI-H522 lung
MALME-3M melanoma = system: MALME-3M melanoma
CCRF-CEM leukemia = system: CCRF-CEM leukemia
SK-MEL-2 melanoma = system: SK-MEL-2 melanoma
OVCAR-4 ovarian = system: OVCAR-4 ovarian
UACC-62 melanoma = system: UACC-62 melanoma
RXF 393 renal = system: RXF 393 renal
IGROV1 ovarian = system: IGROV1 ovarian
OVCAR-3 ovarian = system: OVCAR-3 ovarian
RPMI-8226 leukemia = system: RPMI-8226 leukemia
HL-60(TB) leukemia = system: HL-60(TB) leukemia
EKVX NSCLC = system: EKVX NSCLC
TK-10 renal = system: TK-10 renal
SW-620 colon = system: SW-620 colon
SK-MEL-28 melanoma = system: SK-MEL-28 melanoma
SF-539 CNS = system: SF-539 CNS
SNB-75 CNS = system: SNB-75 CNS
786-0 renal = system: 786-0 renal
DU-145 prostate = system: DU-145 prostate
SN12C renal = system: SN12C renal
LOX IMVI melanoma = system: LOX IMVI melanoma
ACHN renal = system: ACHN renal
HCT-116 colon = system: HCT-116 colon
NCI-H226 lung = system: NCI-H226 lung

CC(=O)O[C@H]1CC[C@H]2[C@@H]3CCC(C(C)=O)[C@H](C(=O)O)[C@H]3CC[C@]12C (some centres not stated)
TGI (SK-MEL-5 melanoma): > 100 µM
TGI (MCF7 breast): > 100 µM
TGI (UO-31 renal): > 100 µM
TGI (A549 NSCLC): > 100 µM
TGI (KM12 colon): > 100 µM
TGI (NCI/ADR-RES ovarian): > 100 µM
TGI (MDA-MB-435): > 100 µM
TGI (HOP-92 NSCLC): > 100 µM
TGI (SF-268 CNS): > 100 µM
TGI (SR leukemia): > 100 µM
TGI (BT-549 breast): > 100 µM
TGI (HCT-15 colon): > 100 µM
TGI (UACC-257 melanoma): > 100 µM
TGI (NCI-H460 lung): > 100 µM
TGI (HT29 colon): > 100 µM
TGI (CAKI-1 renal): > 100 µM
TGI (HCC-2998 colon): > 100 µM
TGI (K-562 leukemia): > 100 µM
TGI (A498 renal): > 100 µM
TGI (COLO 205 colon): > 100 µM
TGI (SK-OV-3 ovarian): > 100 µM
TGI (HOP-62 NSCLC): > 100 µM
TGI (SF-295 CNS): > 100 µM
TGI (OVCAR-8 ovarian): > 100 µM
TGI (PC-3 prostate): > 100 µM
TGI (OVCAR-5 ovarian): > 100 µM
TGI (MDA-MB-231 breast): > 100 µM
TGI (U251 CNS): > 100 µM
TGI (SNB-19 CNS): > 100 µM
TGI (MOLT-4 leukemia): > 100 µM
TGI (NCI-H23 lung): > 100 µM
TGI (HS 578T breast): > 100 µM
TGI (M14 melanoma): > 100 µM
TGI (NCI-H522 lung): > 100 µM
TGI (MALME-3M melanoma): > 100 µM
TGI (CCRF-CEM leukemia): > 100 µM
TGI (SK-MEL-2 melanoma): > 100 µM
TGI (OVCAR-4 ovarian): > 100 µM
TGI (UACC-62 melanoma): > 100 µM
TGI (RXF 393 renal): > 100 µM
TGI (IGROV1 ovarian): > 100 µM
TGI (OVCAR-3 ovarian): > 100 µM
TGI (RPMI-8226 leukemia): > 100 µM
TGI (HL-60(TB) leukemia): > 100 µM
TGI (EKVX NSCLC): > 100 µM
TGI (TK-10 renal): > 100 µM
TGI (SW-620 colon): > 100 µM
TGI (SK-MEL-28 melanoma): > 100 µM
TGI (SF-539 CNS): > 100 µM

COc1c(N2CCN(Cn3c(O)c(N=NC(=O)c4ccncc4)c4cc(F)ccc43)C(C)C2)c(F)cc2c(=O)c(C(=O)O)cn(C3CC3)c12 (configuration not stated)
GI50 (SK-MEL-5 melanoma): 16.6 µM
TGI (SK-MEL-5 melanoma): > 50 µM
GI50 (MCF7 breast): 12.4 µM
TGI (MCF7 breast): > 50 µM
GI50 (SNB-75 CNS): > 50 µM
TGI (SNB-75 CNS): > 50 µM
GI50 (UO-31 renal): > 50 µM
TGI (UO-31 renal): > 50 µM
GI50 (A549 NSCLC): > 50 µM
TGI (A549 NSCLC): > 50 µM
GI50 (KM12 colon): > 50 µM
TGI (KM12 colon): > 50 µM
GI50 (NCI/ADR-RES ovarian): 29 µM
TGI (NCI/ADR-RES ovarian): > 50 µM
GI50 (MDA-MB-435): > 50 µM
TGI (MDA-MB-435): > 50 µM
GI50 (HOP-92 NSCLC): 22.7 µM
TGI (HOP-92 NSCLC): > 50 µM
GI50 (SF-268 CNS): 10.6 µM
TGI (SF-268 CNS): 38.2 µM
GI50 (SR leukemia): 16.3 µM
TGI (SR leukemia): > 50 µM
GI50 (BT-549 breast): 37.5 µM
TGI (BT-549 breast): > 50 µM
GI50 (HCT-15 colon): 17 µM
TGI (HCT-15 colon): > 50 µM
GI50 (UACC-257 melanoma): > 50 µM
TGI (UACC-257 melanoma): > 50 µM
GI50 (NCI-H460 lung): 12.4 µM
TGI (NCI-H460 lung): > 50 µM
GI50 (HT29 colon): > 50 µM
TGI (HT29 colon): > 50 µM
GI50 (CAKI-1 renal): > 50 µM
TGI (CAKI-1 renal): > 50 µM
GI50 (K-562 leukemia): > 50 µM
TGI (K-562 leukemia): > 50 µM
GI50 (A498 renal): 13.3 µM
TGI (A498 renal): > 50 µM
GI50 (COLO 205 colon): > 50 µM
TGI (COLO 205 colon): > 50 µM
GI50 (SK-OV-3 ovarian): 39.8 µM
TGI (SK-OV-3 ovarian): > 50 µM
GI50 (HOP-62 NSCLC): 21.7 µM
TGI (HOP-62 NSCLC): > 50 µM
GI50 (SF-295 CNS): 23.9 µM
TGI (SF-295 CNS): > 50 µM
GI50 (OVCAR-8 ovarian): 34.8 µM
TGI (OVCAR-8 ovarian): > 50 µM
GI50 (PC-3 prostate): > 50 µM
TGI (PC-3 prostate): > 50 µM
GI50 (786-0 renal): 22.3 µM
TGI (786-0 renal): > 50 µM
GI50 (DU-145 prostate): 10 µM
TGI (DU-145 prostate): 32.8 µM
GI50 (OVCAR-5 ovarian): 33.3 µM
TGI (OVCAR-5 ovarian): > 50 µM
GI50 (MDA-MB-231 breast): 8.31 µM
TGI (MDA-MB-231 breast): 27.7 µM
GI50 (U251 CNS): 14.7 µM
TGI (U251 CNS): > 50 µM
GI50 (SN12C renal): 42.8 µM
TGI (SN12C renal): > 50 µM
GI50 (SNB-19 CNS): 32.5 µM
TGI (SNB-19 CNS): > 50 µM
GI50 (MOLT-4 leukemia): 39.1 µM
TGI (MOLT-4 leukemia): > 50 µM
GI50 (NCI-H23 lung): 16.7 µM
TGI (NCI-H23 lung): > 50 µM
GI50 (LOX IMVI melanoma): 24.1 µM
TGI (LOX IMVI melanoma): > 50 µM
GI50 (ACHN renal): 12.5 µM
TGI (ACHN renal): > 50 µM
GI50 (HS 578T breast): 0.294 µM
TGI (HS 578T breast): 13.8 µM
GI50 (M14 melanoma): 32.9 µM
TGI (M14 melanoma): > 50 µM
GI50 (NCI-H522 lung): > 50 µM
TGI (NCI-H522 lung): > 50 µM
GI50 (SK-MEL-2 melanoma): > 50 µM
TGI (SK-MEL-2 melanoma): > 50 µM
GI50 (OVCAR-4 ovarian): > 50 µM
TGI (OVCAR-4 ovarian): > 50 µM
GI50 (HCT-116 colon): 8.24 µM
TGI (HCT-116 colon): 15 µM
GI50 (UACC-62 melanoma): > 50 µM
TGI (UACC-62 melanoma): > 50 µM
GI50 (RXF 393 renal): 8.44 µM
TGI (RXF 393 renal): 20.6 µM
GI50 (IGROV1 ovarian): 42.1 µM
TGI (IGROV1 ovarian): > 50 µM
GI50 (NCI-H226 lung): 25.4 µM
TGI (NCI-H226 lung): > 50 µM
GI50 (OVCAR-3 ovarian): 10.5 µM
TGI (OVCAR-3 ovarian): 23.8 µM
GI50 (RPMI-8226 leukemia): 15.1 µM
TGI (RPMI-8226 leukemia): 47.2 µM
GI50 (HL-60(TB) leukemia): > 50 µM
TGI (HL-60(TB) leukemia): > 50 µM
GI50 (EKVX NSCLC): 35.2 µM
TGI (EKVX NSCLC): > 50 µM
GI50 (TK-10 renal): 12.5 µM
TGI (TK-10 renal): 37.2 µM
GI50 (SW-620 colon): 13.2 µM
TGI (SW-620 colon): > 50 µM
GI50 (SK-MEL-28 melanoma): > 50 µM
TGI (SK-MEL-28 melanoma): > 50 µM
GI50 (SF-539 CNS): 14.6 µM
TGI (SF-539 CNS): > 50 µM
